Here are results for 1 compound from article PMC2746281 (PLoS ONE, 2009).

The subject of data set [1] is human cord-blood-derived mast cells (CBMC). The experiment in a line: FcεRI-mediated degranulation (β-hexosaminidase release) of IgE-anti IgE activated CBMC. It is filed as cell-based. To be noted: Mast cell, 0.5 h, 30 minutes of stimulation. On the procedure:
(§1) (see Supporting Information; Methods S1). […] Assays of β-hexosaminidase release and TNF-α release were made by stimulating the CBMC with 1 µg/ml of goat anti-human IgE (Vector Laboratories) for 30 minutes or 4 hours, respectively. β-hexosaminidase was measured in the supernatant and in the sonicated cell pellets and its net release calculated. For TNF-α determination, the cell-free supernatants were collected by centrifugation and frozen at −80°C until determination of mediator content by the use of a specific ELISA kit according to manufacturer's instructions (Coulter, France). All assays were performed in duplicate and counts were repeated twice for each well.
(§2) Human CBMC were produced by long-term culture of CD34+ progenitors purified from normal cord-blood. […] At the beginning of the culture, rhIL-3 (1 ng/ml) (R&D Systems Europe, France) was also added to induce maximal expansion of haematopoietic progenitors. After 3 days the IL-3 was removed and 4 days later cells were transferred to a complete serum-free medium containing rmSCF at 100 ng/ml, which was renewed every 7 days thereafter. After 8 weeks in culture ≥99% of the cells were identified as being mast cells by May-Grünwald-Giemsa staining of cytocentrifuged samples.

The test system is the same in data set [2]. The experiment in a line: TNF-α release by IgE-anti IgE-activated CBMC (ELISA). To be noted: Mast cell, 4 hours of stimulation. It is filed as cell-based. On the procedure: as §1, §2
On the technique in general: ELISA stands for enzyme-linked immunosorbent assay.

For data set [3], the system named is Salmonella typhimurium and Escherichia coli. To be noted: cited from earlier work.

As a reminder, the inhibition is the drop in the measured response relative to a control, in per cent. In the case of `Cc1ccc(NC(=O)c2ccc(CN3CCN(C)CC3)cc2)cc1Nc1nccc(-c2cccnc2)n1` [imatinib, reference compound], the inhibition at 0.1 µM in data set [1] (0.1 µM) amounted to 2%; in data set [2] (0.1 µM) it was 4%. The inhibition at 1 µM in data set [1] (1.0 µM) worked out at 8%; in data set [2] (1.0 µM) it was 24%. Besides, the inhibition at 10 µM worked out at 19% in data set [1] (10 µM) and 45% in data set [2] (10 µM). Besides, in data set [3], the “bacterial reverse mutation test” value was “positive”.
